A word on the IC50: it is the concentration needed to halve the response being measured.

This assay has as its system JAK1-dependent STAT6 phosphorylation downstream of IL-13 stimulation in TF-1 human erythroleukemia cells. The experiment in a line: cells. The settings on record: TF-1, read-out: IL-13-pSTAT6 IC50.
With `NC1CC2(CCN(C(=O)c3ccc(Nc4nc5c(C6=CCN(C(=O)CCC(F)(F)F)CC6)cccn5n4)cc3)CC2)C1` [Example 2-315, 1-[4-[2-[4-(2-amino-7-azaspiro[3.5]nonane-7-carbonyl)anilino]-[1,2,4]triazolo[1,5-a]pyridin-8-yl]-3,6-dihydro-2H-pyridin-1-yl]-4,4,4-trifluoro-butan-1-one], the IC50 came to 109 nM. To `O=C(NCCC1CCCN1)c1ccc(Nc2nc3c(C4=CCN(C(=O)CCC(F)(F)F)CC4)cccn3n2)cc1` (stereo not shown) [Example 2-316, N-(2-pyrrolidin-2-ylethyl)-4-[[8-[1-(4,4,4-trifluorobutanoyl)-3,6-dihydro-2H-pyridin-4-yl]-[1,2,4]triazolo[1,5-a]pyridin-2-yl]amino]benzamide] belongs 145 nM; to `O=C(NCC1CCCN1)c1ccc(Nc2nc3c(C4=CCN(C(=O)CCC(F)(F)F)CC4)cccn3n2)cc1` (stereo not shown) [Example 2-317, N-(pyrrolidin-2-ylmethyl)-4-[[8-[1-(4,4,4-trifluorobutanoyl)-3,6-dihydro-2H-pyridin-4-yl]-[1,2,4]triazolo[1,5-a]pyridin-2-yl]amino]benzamide], 228 nM. As for `O=C(CCC(F)(F)F)N1CC=C(c2cccn3nc(Nc4ccc(C(=O)N5CCNCC5)cc4)nc23)CC1` [Example 2-318, 4,4,4-trifluoro-1-[4-[2-[4-(piperazine-1-carbonyl)anilino]-[1,2,4]triazolo[1,5-a]pyridin-8-yl]-3,6-dihydro-2H-pyridin-1-yl]butan-1-one], the half-inhibitory concentration (IC50) was 37.7 nM. For `CC1CNCCN1C(=O)c1ccc(Nc2nc3c(C4=CCN(C(=O)CCC(F)(F)F)CC4)cccn3n2)cc1` (stereo not shown) [Example 2-319, 4,4,4-trifluoro-1-[4-[2-[4-(2-methylpiperazine-1-carbonyl)anilino]-[1,2,4]triazolo[1,5-a]pyridin-8-yl]-3,6-dihydro-2H-pyridin-1-yl]butan-1-one], the half-maximal inhibitory concentration (IC50) worked out at 24.3 nM.

Regarding `O=C(CCC(F)(F)F)N1CC=C(c2cccn3nc(Nc4ccc(C(=O)N5CC[C@H]6CNC[C@H]65)cc4)nc23)CC1` [Example 2-320, 1-[4-[2-[4-[(3aS,6aS)-3,3a,4,5,6,6a-hexahydro-2H-pyrrolo[2,3-c]pyrrole-1-carbonyl]anilino]-[1,2,4]triazolo[1,5-a]pyridin-8-yl]-3,6-dihydro-2H-pyridin-1-yl]-4,4,4-trifluoro-butan-1-one], the IC50 amounted to 120 nM. Take `O=C(CCC(F)(F)F)N1CC=C(c2cccn3nc(Nc4ccc(C(=O)N5C[C@H]6CNC[C@H]6C5)cc4)nc23)CC1` [Example 2-321, 1-[4-[2-[4-[(3aR,6aS)-2,3,3a,4,6,6a-hexahydro-1H-pyrrolo[3,4-c]pyrrole-5-carbonyl]anilino]-[1,2,4]triazolo[1,5-a]pyridin-8-yl]-3,6-dihydro-2H-pyridin-yl]-4,4,4-trifluoro-butan-1-one]: the half-maximal inhibitory concentration (IC50) was determined as 250 nM. For the molecule `O=C(NC1CC2(CCNCC2)C1)c1ccc(Nc2nc3c(C4=CCN(C(=O)CCC(F)(F)F)CC4)cccn3n2)cc1` [Example 2-322, N-(7-azaspiro[3.5]nonan-2-yl)-4-[[8-[1-(4,4,4-trifluorobutanoyl)-3,6-dihydro-2H-pyridin-4-yl]-[1,2,4]triazolo[1,5-a]pyridin-2-yl]amino]benzamide], the IC50 is 104 nM.

For `N[C@]12C[C@H]1CN(C(=O)c1ccc(Nc3nc4c(C5=CCN(C(=O)CCC(F)(F)F)CC5)cccn4n3)cc1)C2` [Example 2-323], the half-maximal inhibitory concentration (IC50) turned out to be 17.5 nM. For `CN1CCCCC1C1CCCN1C(=O)c1ccc(Nc2nc3c(C4=CCN(C(=O)CCC(F)(F)F)CC4)cccn3n2)cc1` (stereo not shown) [Example 2-324, 4,4,4-trifluoro-1-[4-[2-[4-[2-(1-methyl-2-piperidyl)pyrrolidine-1-carbonyl]anilino]-[1,2,4]triazolo[1,5-a]pyridin-8-yl]-3,6-dihydro-2H-pyridin-yl]butan-1-one], the IC50 worked out at 8.2 nM. `CN(C)C(=O)C1CN(C(=O)c2ccc(Nc3nc4c(C5=CCN(C(=O)CCC(F)(F)F)CC5)cccn4n3)cc2)CCN1C` (stereo not shown) [Example 2-325, N,N,1-trimethyl-4-[4-[[8-[1-(4,4,4-trifluorobutanoyl)-3,6-dihydro-2H-pyridin-4-yl]-[1,2,4]triazolo[1,5-a]pyridin-2-yl]amino]benzoyl] piperazine-2-carboxamide]: the IC50 was found to be 191 nM. For the molecule `CN1C[C@@H]2CCN(C(=O)c3ccc(Nc4nc5c(C6=CCN(C(=O)CCC(F)(F)F)CC6)cccn5n4)cc3)[C@@H]2C1` [Example 2-326, 1-[4-[2-[4-[(3aS,6aS)-5-methyl-2,3,3a,4,6,6a-hexahydropyrrolo[2,3-c]pyrrole-1-carbonyl]anilino]-[1,2,4]triazolo[1,5-a]pyridin-8-yl]-3,6-dihydro-2H-pyridin-1-yl]-4,4,4-trifluoro-butan-1-one], the half-maximal inhibitory concentration (IC50) is 4.2 nM. In the case of `CN1CCC2(C1)CN(C(=O)c1ccc(Nc3nc4c(C5=CCN(C(=O)CCC(F)(F)F)CC5)cccn4n3)cc1)C2` [Example 2-328, 4,4,4-trifluoro-1-[4-[2-[4-(7-methyl-2,7-diazaspiro[3.4]octane-2-carbonyl)anilino]-[1,2,4]triazolo[1,5-a]pyridin-8-yl]-3,6-dihydro-2H-pyridin-1-yl]butan-1-one], the half-inhibitory concentration (IC50) came out at 12.3 nM. For `O=C(CCC(F)(F)F)N1CC=C(c2cccn3nc(Nc4ccc(C(=O)N5CCN(C6CCCCC6)CC5)cc4)nc23)CC1` [Example 2-329, 1-[4-[2-[4-(4-cyclohexylpiperazine-1-carbonyl)anilino]-[1,2,4]triazolo[1,5-a]pyridin-8-yl]-3,6-dihydro-2H-pyridin-1-yl]-4,4,4-trifluoro-butan-1-one], the concentration for half-maximal inhibition (IC50) amounted to 8.3 nM. Regarding `CC(C)N1CCC(N(C)C(=O)c2ccc(Nc3nc4c(C5=CCN(C(=O)CCC(F)(F)F)CC5)cccn4n3)cc2)CC1` [Example 2-330, N-(1-isopropyl-4-piperidyl)-N-methyl-4-[[8-[1-(4,4,4-trifluorobutanoyl)-3,6-dihydro-2H-pyridin-4-yl]-[1,2,4]triazolo[1,5-a]pyridin-2-yl]amino]benzamide], the 50% inhibitory concentration (IC50) was 13.4 nM. To `COCCN1CCN(C(=O)c2ccc(Nc3nc4c(C5=CCN(C(=O)CCC(F)(F)F)CC5)cccn4n3)cc2)CC1` [Example 2-331, 4,4,4-trifluoro-1-[4-[2-[4-[4-(2-methoxyethyl)piperazine-1-carbonyl]anilino]-[1,2,4]triazolo[1,5-a]pyridin-8-yl]-3,6-dihydro-2H-pyridin-1-yl]butan-1-one] belongs 8.9 nM; to `CN1C(C)(C)CC(NC(=O)c2ccc(Nc3nc4c(C5=CCN(C(=O)CCC(F)(F)F)CC5)cccn4n3)cc2)CC1(C)C` [Example 2-332, N-(1,2,2,6,6-pentamethyl-4-piperidyl)-4-[[8-[1-(4,4,4-trifluorobutanoyl)-3,6-dihydro-2H-pyridin-4-yl]-[1,2,4]triazolo[1,5-a]pyridin-2-yl]amino]benzamide], 9.2 nM. The result for `CC(C)(CN1CCOCC1)NC(=O)c1ccc(Nc2nc3c(C4=CCN(C(=O)CCC(F)(F)F)CC4)cccn3n2)cc1` [Example 2-333, N-(1,1-dimethyl-2-morpholino-ethyl)-4-[[8-[1-(4,4,4-trifluorobutanoyl)-3,6-dihydro-2H-pyridin-4-yl]-[1,2,4]triazolo[1,5-a]pyridin-2-yl]amino]benzamide] reads 5.5 nM. The result for `CN1CCC(NC(=O)c2ccc(Nc3nc4c(C5=CCN(C(=O)CCC(F)(F)F)CC5)cccn4n3)cc2)CC1` [Example 2-335, N-(1-methyl-4-piperidyl)-4-[[8-[1-(4,4,4-trifluorobutanoyl)-3,6-dihydro-2H-pyridin-4-yl]-[1,2,4]triazolo[1,5-a]pyridin-2-yl]amino]benzamide] reads 14.3 nM.

With `CN(C)CCNC(=O)c1ccc(Nc2nc3c(C4=CCN(C(=O)CCC(F)(F)F)CC4)cccn3n2)cc1` [Example 2-336, N-[2-(dimethylamino)ethyl]-4-[[8-[1-(4,4,4-trifluorobutanoyl)-3,6-dihydro-2H-pyridin-4-yl]-[1,2,4]triazolo[1,5-a]pyridin-2-yl]amino]benzamide], the half-maximal inhibitory concentration (IC50) was determined as 8.6 nM. Regarding `CN1CCCC(CNC(=O)c2ccc(Nc3nc4c(C5=CCN(C(=O)CCC(F)(F)F)CC5)cccn4n3)cc2)C1` (stereo not shown) [Example 2-337, N-[(1-methyl-3-piperidyl)methyl]-4-[[8-[1-(4,4,4-trifluorobutanoyl)-3,6-dihydro-2H-pyridin-4-yl]-[1,2,4]triazolo[1,5-a]pyridin-2-yl]amino]benzamide], the half-maximal inhibitory concentration (IC50) turned out to be 28.9 nM. On to `O=C(CCC(F)(F)F)N1CC=C(c2cccn3nc(Nc4ccc(C(=O)N5CCCC(N6CCOCC6)C5)cc4)nc23)CC1` (stereo not shown) [Example 2-339, 4,4,4-trifluoro-1-[4-[2-[4-(3-morpholinopiperidine-1-carbonyl)anilino]-[1,2,4]triazolo[1,5-a]pyridin-8-yl]-3,6-dihydro-2H-pyridin-1-yl]butan-1-one], for which the IC50 turned out to be 9.8 nM. For `O=C(CCC(F)(F)F)N1CC=C(c2cccn3nc(Nc4ccc(C(=O)N5CCN(CC6CCCO6)CC5)cc4)nc23)CC1` (stereo not shown) [Example 2-340, 4,4,4-trifluoro-1-[4-[2-[4-[4-(tetrahydrofuran-2-ylmethyl)piperazine-1-carbonyl]anilino]-[1,2,4]triazolo[1,5-a]pyridin-8-yl]-3,6-dihydro-2H-pyridin-1-yl]butan-1-one], the IC50 amounted to 3.9 nM. For the molecule `O=C(CCC(F)(F)F)N1CC=C(c2cccn3nc(Nc4ccc(C(=O)N5CCCC(c6ccccn6)C5)cc4)nc23)CC1` (stereo not shown) [Example 2-341, 4,4,4-trifluoro-1-[4-[2-[4-[3-(2-pyridyl)piperidine-1-carbonyl]anilino]-[1,2,4]triazolo[1,5-a]pyridin-8-yl]-3,6-dihydro-2H-pyridin-1-yl]butan-1-one], the IC50 was 11.4 nM. Regarding `CNC(=O)C1CN(C(=O)c2ccc(Nc3nc4c(C5=CCN(C(=O)CCC(F)(F)F)CC5)cccn4n3)cc2)CCN1Cc1ccccc1` (stereo not shown) [Example 2-342, 1-benzyl-N-methyl-4-[4-[[8-[1-(4,4,4-trifluorobutanoyl)-3,6-dihydro-2H-pyridin-4-yl]-[1,2,4]triazolo[1,5-a]pyridin-2-yl]amino]benzoyl] piperazine-2-carboxamide], the IC50 was found to be 16.2 nM.

(Values after patent publication US9873709B2 (priority 2013, dated 2018).)
